# Test results from ChEMBL document CHEMBL5465560, “Selectivity Literature for EUbOPEN Chemogenomic Library” (2024).
# Legend:
# [1] = target: RAC-alpha serine/threonine-protein kinase (Homo sapiens, UniProt P31749); experiment: Selectivity interaction (Kinase panel (Z-LYTE Assay)) EUB0001632a AKT1; conditions: at 10 µM
# [2] = target: T1, Ephrin type-B receptor 4 (Homo sapiens) (UniProt P54760); conditions: at 10 µM
# T1 sequence (whole entry): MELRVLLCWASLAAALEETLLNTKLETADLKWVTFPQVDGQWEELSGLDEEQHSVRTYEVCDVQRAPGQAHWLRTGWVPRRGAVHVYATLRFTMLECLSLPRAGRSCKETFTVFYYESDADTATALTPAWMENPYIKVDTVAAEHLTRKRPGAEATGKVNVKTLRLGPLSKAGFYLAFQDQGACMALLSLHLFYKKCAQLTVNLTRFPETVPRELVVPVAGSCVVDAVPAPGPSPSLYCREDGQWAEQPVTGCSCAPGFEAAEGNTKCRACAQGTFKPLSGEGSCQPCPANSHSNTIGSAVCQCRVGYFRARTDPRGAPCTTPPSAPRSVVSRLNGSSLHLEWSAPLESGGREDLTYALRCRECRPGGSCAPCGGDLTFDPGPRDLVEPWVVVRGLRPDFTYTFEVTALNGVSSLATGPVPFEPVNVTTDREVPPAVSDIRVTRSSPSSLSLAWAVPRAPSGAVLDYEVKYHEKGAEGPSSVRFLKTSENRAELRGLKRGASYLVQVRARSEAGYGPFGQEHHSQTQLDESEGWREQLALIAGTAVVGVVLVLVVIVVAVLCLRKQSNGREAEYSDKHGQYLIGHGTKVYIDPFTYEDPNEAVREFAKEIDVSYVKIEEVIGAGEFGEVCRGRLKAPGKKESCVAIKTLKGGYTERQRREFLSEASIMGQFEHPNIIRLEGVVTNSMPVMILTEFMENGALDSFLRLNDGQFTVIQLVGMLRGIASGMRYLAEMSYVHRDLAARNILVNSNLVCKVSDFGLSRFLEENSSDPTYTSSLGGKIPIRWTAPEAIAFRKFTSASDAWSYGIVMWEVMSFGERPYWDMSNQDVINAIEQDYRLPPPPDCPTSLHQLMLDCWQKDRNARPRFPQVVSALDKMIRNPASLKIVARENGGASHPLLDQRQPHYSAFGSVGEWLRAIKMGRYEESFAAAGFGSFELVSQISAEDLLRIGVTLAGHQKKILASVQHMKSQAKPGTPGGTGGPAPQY
# [3] = target: T1, Ephrin type-B receptor 4 (Homo sapiens); experiment: Selectivity interaction (Upstate Kinase Profiler service (Millipore)) EUB0000056c EPHB4; conditions: at 1 µM
# [4] = system: RAF proto-oncogene serine/threonine-protein kinase (Homo sapiens), P04049 [Y340D,Y341D]; experiment: Selectivity interaction (ProQinase) EUB0000171b RAF1
# Chain of RAF proto-oncogene serine/threonine-protein kinase (Homo sapiens), P04049 [Y340D,Y341D] (P04049 whole entry Y340D/Y341D): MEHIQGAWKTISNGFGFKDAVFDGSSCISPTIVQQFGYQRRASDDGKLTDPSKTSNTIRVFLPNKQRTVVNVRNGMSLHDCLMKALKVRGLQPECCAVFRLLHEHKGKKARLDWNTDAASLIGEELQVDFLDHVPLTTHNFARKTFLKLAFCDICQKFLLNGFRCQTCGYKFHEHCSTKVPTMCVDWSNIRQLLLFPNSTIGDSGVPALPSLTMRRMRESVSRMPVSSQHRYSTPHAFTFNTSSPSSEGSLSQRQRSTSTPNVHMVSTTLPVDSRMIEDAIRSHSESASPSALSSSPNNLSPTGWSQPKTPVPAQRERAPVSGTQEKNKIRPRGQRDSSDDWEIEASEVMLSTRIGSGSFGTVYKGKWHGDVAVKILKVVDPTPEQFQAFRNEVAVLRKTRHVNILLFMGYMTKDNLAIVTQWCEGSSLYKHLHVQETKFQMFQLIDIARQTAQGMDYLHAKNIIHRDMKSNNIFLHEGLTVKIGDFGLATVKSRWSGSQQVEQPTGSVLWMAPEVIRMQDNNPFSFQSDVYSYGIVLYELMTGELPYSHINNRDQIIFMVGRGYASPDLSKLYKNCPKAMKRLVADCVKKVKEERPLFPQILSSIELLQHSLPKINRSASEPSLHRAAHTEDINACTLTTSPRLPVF
# [5] = target: Insulin-like growth factor 1 receptor (Homo sapiens, UniProt P08069); experiment: Selectivity interaction (KinomeScan (DiscoverX)) EUB0001619a IGF1R; conditions: at 1 µM
# Chain of Insulin-like growth factor 1 receptor (P08069 31-736 limits assumed): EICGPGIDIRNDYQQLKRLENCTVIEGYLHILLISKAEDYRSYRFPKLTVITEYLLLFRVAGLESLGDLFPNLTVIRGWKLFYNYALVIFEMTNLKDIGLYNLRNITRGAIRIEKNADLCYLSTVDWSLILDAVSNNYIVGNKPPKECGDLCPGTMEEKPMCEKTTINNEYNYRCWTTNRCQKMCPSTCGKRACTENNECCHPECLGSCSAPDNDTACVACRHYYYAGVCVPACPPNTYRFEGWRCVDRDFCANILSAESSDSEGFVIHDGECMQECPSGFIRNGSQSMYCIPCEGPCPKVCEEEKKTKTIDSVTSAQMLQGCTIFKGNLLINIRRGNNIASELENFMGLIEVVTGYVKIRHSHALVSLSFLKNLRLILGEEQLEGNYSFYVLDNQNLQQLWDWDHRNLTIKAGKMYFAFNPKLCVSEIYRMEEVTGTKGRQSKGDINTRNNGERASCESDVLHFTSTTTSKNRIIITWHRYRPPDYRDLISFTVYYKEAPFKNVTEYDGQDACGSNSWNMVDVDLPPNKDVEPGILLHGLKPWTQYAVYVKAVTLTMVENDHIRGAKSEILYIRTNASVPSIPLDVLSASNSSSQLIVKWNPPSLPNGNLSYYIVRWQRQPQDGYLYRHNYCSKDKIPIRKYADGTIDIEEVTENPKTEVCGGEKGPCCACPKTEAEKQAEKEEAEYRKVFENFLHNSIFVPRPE
# Chain of Insulin-like growth factor 1 receptor (P08069 741-1367 limits assumed): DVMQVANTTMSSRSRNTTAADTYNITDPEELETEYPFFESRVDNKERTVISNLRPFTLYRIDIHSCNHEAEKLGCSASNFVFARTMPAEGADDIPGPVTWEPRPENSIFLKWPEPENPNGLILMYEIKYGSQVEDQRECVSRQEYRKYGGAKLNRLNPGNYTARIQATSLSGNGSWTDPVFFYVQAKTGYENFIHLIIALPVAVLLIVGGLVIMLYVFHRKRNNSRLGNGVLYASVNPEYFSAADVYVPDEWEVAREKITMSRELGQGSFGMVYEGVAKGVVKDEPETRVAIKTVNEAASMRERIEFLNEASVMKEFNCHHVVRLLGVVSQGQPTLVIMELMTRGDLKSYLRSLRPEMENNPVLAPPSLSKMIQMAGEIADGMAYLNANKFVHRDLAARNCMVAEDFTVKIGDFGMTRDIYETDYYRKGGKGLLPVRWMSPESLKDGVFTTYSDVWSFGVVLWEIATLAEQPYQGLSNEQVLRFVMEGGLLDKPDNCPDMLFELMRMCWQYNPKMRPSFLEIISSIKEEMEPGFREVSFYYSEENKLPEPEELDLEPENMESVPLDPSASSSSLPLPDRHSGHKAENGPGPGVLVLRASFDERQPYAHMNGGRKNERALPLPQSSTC
# [6] = target: Polycomb protein SUZ12 (Homo sapiens) (UniProt Q15022); experiment: Selectivity interaction (Methyltransferase screen (Scintillation proximity assays)) EUB0000255b SUZ12
# Chain of Polycomb protein SUZ12 (Homo sapiens) (Q15022 whole entry): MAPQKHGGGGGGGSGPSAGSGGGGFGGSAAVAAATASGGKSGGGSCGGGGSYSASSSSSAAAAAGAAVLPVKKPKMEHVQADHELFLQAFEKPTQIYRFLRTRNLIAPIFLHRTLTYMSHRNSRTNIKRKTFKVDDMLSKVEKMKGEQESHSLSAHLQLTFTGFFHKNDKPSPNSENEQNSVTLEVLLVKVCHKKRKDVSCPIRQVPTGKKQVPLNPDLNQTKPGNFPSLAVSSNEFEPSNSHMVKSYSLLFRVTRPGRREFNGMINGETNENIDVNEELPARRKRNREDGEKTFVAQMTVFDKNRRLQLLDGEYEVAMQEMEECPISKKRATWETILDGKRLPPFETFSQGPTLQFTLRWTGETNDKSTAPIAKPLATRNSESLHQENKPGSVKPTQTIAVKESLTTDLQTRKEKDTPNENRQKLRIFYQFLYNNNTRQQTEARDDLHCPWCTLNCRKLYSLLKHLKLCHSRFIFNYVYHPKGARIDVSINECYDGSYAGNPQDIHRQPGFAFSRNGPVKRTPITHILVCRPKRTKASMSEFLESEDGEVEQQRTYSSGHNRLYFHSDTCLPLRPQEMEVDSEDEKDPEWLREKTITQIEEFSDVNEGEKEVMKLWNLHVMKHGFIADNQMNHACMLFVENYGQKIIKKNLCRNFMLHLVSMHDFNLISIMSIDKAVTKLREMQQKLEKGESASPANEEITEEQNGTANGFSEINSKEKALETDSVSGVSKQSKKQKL
# [7] = target: Calcium/calmodulin-dependent protein kinase type 1D (Homo sapiens) (UniProt Q8IU85); experiment: Selectivity interaction (KinomeScan (DiscoverX)) EUB0000618a CAMK1D; conditions: at 10 µM
# Chain of Calcium/calmodulin-dependent protein kinase type 1D (Homo sapiens) (Q8IU85 whole entry, looked up): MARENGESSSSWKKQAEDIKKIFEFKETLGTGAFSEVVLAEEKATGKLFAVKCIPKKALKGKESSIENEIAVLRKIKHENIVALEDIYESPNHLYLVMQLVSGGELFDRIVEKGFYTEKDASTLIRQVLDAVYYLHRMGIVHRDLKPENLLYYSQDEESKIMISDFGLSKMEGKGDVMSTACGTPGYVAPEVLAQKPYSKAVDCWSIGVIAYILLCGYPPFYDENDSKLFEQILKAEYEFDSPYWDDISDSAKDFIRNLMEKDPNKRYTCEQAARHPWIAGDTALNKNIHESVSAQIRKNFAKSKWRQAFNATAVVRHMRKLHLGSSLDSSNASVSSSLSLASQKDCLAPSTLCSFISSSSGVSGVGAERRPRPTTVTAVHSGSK
# [8] = target: T2, PAN2-PAN3 deadenylation complex subunit PAN3 (Homo sapiens) (UniProt Q58A45); experiment: Selectivity interaction (ActivX KiNativ screen (kinase selectivity in THP-1 cell lysates)) EUB0000639a PAN3; assay type: subcellular; conditions: lysate
# T2 sequence (whole entry): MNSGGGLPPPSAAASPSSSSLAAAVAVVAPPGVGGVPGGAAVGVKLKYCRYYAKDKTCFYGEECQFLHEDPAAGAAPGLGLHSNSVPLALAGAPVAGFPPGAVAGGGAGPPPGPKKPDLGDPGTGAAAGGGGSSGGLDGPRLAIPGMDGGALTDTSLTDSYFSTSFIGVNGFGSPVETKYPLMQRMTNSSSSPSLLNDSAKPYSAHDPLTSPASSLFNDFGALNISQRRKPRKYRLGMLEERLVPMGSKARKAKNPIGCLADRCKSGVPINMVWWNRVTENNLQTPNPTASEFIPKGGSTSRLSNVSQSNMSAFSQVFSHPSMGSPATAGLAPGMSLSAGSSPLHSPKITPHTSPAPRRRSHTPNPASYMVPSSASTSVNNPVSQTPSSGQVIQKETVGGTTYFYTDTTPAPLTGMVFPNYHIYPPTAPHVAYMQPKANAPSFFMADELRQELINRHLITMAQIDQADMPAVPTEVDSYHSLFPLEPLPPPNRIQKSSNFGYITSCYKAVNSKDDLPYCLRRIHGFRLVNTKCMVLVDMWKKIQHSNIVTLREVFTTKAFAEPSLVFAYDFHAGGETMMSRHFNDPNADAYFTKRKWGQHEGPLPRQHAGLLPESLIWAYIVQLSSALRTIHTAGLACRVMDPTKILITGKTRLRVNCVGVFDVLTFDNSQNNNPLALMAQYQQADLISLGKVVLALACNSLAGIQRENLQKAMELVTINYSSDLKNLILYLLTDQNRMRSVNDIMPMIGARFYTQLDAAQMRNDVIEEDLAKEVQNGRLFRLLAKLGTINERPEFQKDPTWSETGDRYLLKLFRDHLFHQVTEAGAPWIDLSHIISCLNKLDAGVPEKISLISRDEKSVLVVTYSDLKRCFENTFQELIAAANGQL
# [9] = target: T3, Serine/threonine-protein kinase Sgk2 (Homo sapiens) (UniProt Q9HBY8); experiment: Selectivity interaction (Kinase panel (Invitrogen)) EUB0000639a SGK2; conditions: at 200 nM
# T3 sequence (whole entry): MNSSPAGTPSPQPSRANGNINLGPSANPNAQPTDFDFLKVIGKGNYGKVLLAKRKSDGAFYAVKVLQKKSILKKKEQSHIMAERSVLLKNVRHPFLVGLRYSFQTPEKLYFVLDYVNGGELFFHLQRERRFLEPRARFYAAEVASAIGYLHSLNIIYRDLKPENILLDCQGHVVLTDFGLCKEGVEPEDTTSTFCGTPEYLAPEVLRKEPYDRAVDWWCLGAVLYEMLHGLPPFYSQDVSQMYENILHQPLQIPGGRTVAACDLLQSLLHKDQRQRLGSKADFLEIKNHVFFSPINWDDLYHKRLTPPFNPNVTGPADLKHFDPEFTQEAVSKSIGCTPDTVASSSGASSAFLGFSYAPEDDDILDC
# [10] = target: Mitogen-activated protein kinase 3 (Homo sapiens, UniProt P27361); experiment: Selectivity interaction (ActivX KiNativ screen (kinase selectivity in THP-1 cell lysates)) EUB0000639a MAPK3; assay type: subcellular; conditions: lysate
# Chain of Mitogen-activated protein kinase 3 (P27361 whole entry): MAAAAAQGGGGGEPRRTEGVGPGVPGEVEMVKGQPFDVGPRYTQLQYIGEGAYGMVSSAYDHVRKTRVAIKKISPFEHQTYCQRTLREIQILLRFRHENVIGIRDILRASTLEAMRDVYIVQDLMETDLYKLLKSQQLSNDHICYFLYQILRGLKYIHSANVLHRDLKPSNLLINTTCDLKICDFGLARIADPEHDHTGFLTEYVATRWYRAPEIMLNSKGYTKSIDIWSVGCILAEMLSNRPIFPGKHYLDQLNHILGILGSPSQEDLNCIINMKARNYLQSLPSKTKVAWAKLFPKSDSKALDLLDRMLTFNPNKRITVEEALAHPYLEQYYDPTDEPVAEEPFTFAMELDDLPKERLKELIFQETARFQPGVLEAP
# Chain of RAC-alpha serine/threonine-protein kinase (P31749 whole entry): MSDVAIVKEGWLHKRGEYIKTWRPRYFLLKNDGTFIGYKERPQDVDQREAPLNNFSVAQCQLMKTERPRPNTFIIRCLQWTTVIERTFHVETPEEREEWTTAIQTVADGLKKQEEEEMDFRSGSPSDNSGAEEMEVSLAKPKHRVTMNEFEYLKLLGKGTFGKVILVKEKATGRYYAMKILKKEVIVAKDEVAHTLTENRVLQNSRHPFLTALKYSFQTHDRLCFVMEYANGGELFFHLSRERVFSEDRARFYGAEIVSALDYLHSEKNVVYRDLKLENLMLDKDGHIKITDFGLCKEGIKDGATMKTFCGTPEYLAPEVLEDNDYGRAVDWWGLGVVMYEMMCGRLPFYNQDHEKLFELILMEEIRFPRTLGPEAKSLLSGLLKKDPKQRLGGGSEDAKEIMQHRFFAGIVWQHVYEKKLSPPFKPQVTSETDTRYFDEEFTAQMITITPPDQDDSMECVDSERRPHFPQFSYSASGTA
compound,measurement,setting,value
Cn1cc(-n2cnc3c(NCc4nc5cc(Cl)c(Cl)cc5[nH]4)nc(N4CCOCC4)nc32)cn1,% of control,[1],-0.23%
Cc1cc([C@@H](C)Nc2ccccc2C(=O)O)c2nc(N3CCOCC3)cc(=O)n2c1 [AZD-6482],% of control,[2],96%
Cc1ccc(-c2ccc3c(ccc4sc5c(c43)NC[C@@H](C)NC5=O)n2)cn1,% of inhibition,[3],-11%
C=CC(=O)Nc1cccc(C(=O)Nc2ccc(Nc3cc(-c4[nH]c(SC)nc4C)ccn3)cc2)c1,% of control,[4]; at 1 µM,96%
same,% of control,[4]; at 5 µM,92%
N#Cc1cccc(-c2c[nH]c3ncnc(N4CCOCC4)c23)c1,% of control,[5],87%
COCCN1CCC(c2cc(CN(C)C(=O)c3cccc(Oc4ccccc4)c3)ccn2)CC1,% activity,[6]; at 1 µM,> 95%
same,% activity,[6]; at 10 µM,> 90%
O[C@H]1CC[C@H](Nc2ncc3nc(Nc4c(F)cc(F)cc4F)n([C@H]4CCOC4)c3n2)CC1,% of control,[7],93%
CC[C@@H]1[C@H](F)C(=O)N[C@@H]1COc1nccc2cc(C(N)=O)c(OC)cc12 [ZIMLOVISERTIB],% of inhibition,[8]; at 0.01 µM,20.4%
same,% of inhibition,[8]; at 0.04 µM,-4.3%
same,% of inhibition,[8]; at 0.2 µM,-4.4%
same,% of inhibition,[8]; at 1 µM,-2.8%
same,% of inhibition,[8]; at 5 µM,-19.6%
same,% of inhibition,[9],5.25%
same,% of inhibition,[10]; at 0.01 µM,0.3%
same,% of inhibition,[10]; at 0.04 µM,0.4%
same,% of inhibition,[10]; at 0.2 µM,5%
same,% of inhibition,[10]; at 1 µM,5.6%
same,% of inhibition,[10]; at 5 µM,-4.9%
